The record followed here is patent US20170189416A1, “PHARMACEUTICAL COMPOSITION FOR TREATING BREAST CANCER” (MA SHEN KAI RUEi CO., LTD., priority 2015, published 2017).

“Also recorded” adds a separate entry of the source.

One experiment has as its system MCF-7. Put plainly: MTT survival assay on human breast-cancer cells MCF-7. Type of experiment: cell-based. The note with it: MCF-7, MTT assay, isolated compound. An excerpt: (§1) According to the present invention, the effects such as treating breast cancer, inhibiting the growth of breast cancer cell and others, of Antroquinonol B (AnQB) and/or dehydroeburicoic acid (DeHBA) may be tested by using any of the test methods used in the prior arts, for example, MTT assay of using 3-(4,5-dimethylthiazol-2-yl)-2, S-diphenyl tetrazolium bromide (MTT) to determine cell survival rates of breast cancer cell lines.
(§2) The Antroquinonol B (AnQB) and dehydroeburicoic acid (DeHBA) separately isolated from the Extraction A of Example 1 were added into the culture media of human breast-cancer cells, MCF-7 or MDA-MB-231, to test for tumor cell survival by using anti-cancer drug screen model. This survival assay was carried out with the widely known MTT (3-[4,5-dimethylthiazol-2-yl]2,5-diphenyltetrazolium bromide) assay.
(§3) MCF-7 cell line (purchased from B CRC) is originated from primary breast cancer cells (early stage), sensitive to estrogen and therefore is estrogen-dependent, while MDA-MB-231 is insensitive to estrogen and therefore is estrogen-independent, which is a difficult tumor with a low survival rate.
(§4) The human breast-cancer cells, MCF-7 and MDA-MB-231 were cultivated in media containing fetal calf serum for 36 hours. The proliferated cells were washed once with PBS, then treated with 1× trypsin-EDTA and centrifuged at 2000 rpm for 25 minutes. The supernatant was discarded and the cell pellet was re-suspended in 30 ml of fresh culture medium by gently shaking. The cells were placed in a 96-well plate.
(§5) Subsequently, the plates were read on an ELISA reader to determine the survival rates. The half maximal inhibitory concentration (IC50) values were calculated and results of ex vivo survival assay were thus obtained.
(§6) By using the same manner as the method described above, respectively human breast cancer cell line MCF-7 and MDA-MB-231 was cultured. After then, the pharmaceutical compositions A˜F of the present invention was applied separately, and then MTT assay for each sample was measured to assess the inhibition effectiveness of various cancer cell activity while using pharmaceutical compositions A˜F of the present invention.
In general terms: Formazan colour is commonly taken as a measure of viable cells.

The subject of the next experiment is MDA-MB-231. The experiment is described as follows: MTT survival assay on human breast-cancer cells MDA-MB-231. Type of experiment: cell-based. Conditions: MDA-MB-231, MTT assay, isolated compound.
From the text: as §1, §2, §3, §4, §5, §6

Regarding `COC1=C(OC)[C@H](O)[C@H](C/C=C(\C)CC/C=C(/C)C/C=C/C(C)(C)O)[C@@H](C)C1=O` [Antroquinonol B], in the experiment with MCF-7, the “half-maximal inhibitory concentration (IC50)” value was “relatively low” and the “survival rate of breast cancer cell line” value is reported as “can inhibit the growth of breast cancer cell; also recorded: can decrease the survival rates”. In addition, in the experiment on MDA-MB-231, the “half-maximal inhibitory concentration (IC50)” value was “relatively low” and the “survival rate of breast cancer cell line” value is “can inhibit the growth of breast cancer cell; also recorded: can decrease the survival rates”.
As to `C=C(CC[C@@H](C(=O)O)[C@H]1CC[C@@]2(C)C3=CC[C@H]4C(C)(C)[C@@H](O)CC[C@]4(C)C3=CC[C@]12C)C(C)C` [dehydroeburicoic acid], the “half-maximal inhibitory concentration (IC50)” value in the experiment on MCF-7 and in the experiment with MDA-MB-231 was “relatively low” each time. In addition, the “survival rate of breast cancer cell line” value with MCF-7 and with MDA-MB-231 was “can inhibit the growth of breast cancer cell; also recorded: can decrease the survival rates” throughout.
